Measured values as given in EP0362382A1, “METHOD OF STERILIZING PLANT POLLEN” (VSESOJUZNY NAUCHNO-ISSLEDOVATELSKY INST. SELSKOKHOZYAISTV. …, priority 1988, dated 1989).

Test system: Sommerweizen
Test: Field test of gametocidal activity (sterilisation of anthers), spring wheat
Format: in vivo
Details: Sorte Botanitscheskaja 4; V. Periode der Organogenese; 1%ige wäßrige Emulsion; 6 kg/ha
Text: (§1) Die gametozide Aktivitat der erfindungsgemäßen Sterilisationsmittel war im Feldversuch in verschiedenen bodenklimatischen Zonen mit Teilstücken von 10 m^2 Größe in drei- bis viermaliger Wiederholung festgestellt. Jedes Sterilisationsmittel wurde mindenstens 5 Jahre lang geprüft.
(§2) Die Entwicklung der Perioden der Organogenese wird zytologisch überwacht. Die Behandlung von Pflanzen mit dem Sterilisationsmittel erfolgt am Anfang der fünften Periode der Organogenese nach Kupermann.
(§3) Mit dem Ährenschieben verwirklicht man die Isolierung von Hauptähren und anderen Stockwerken in Pergamentbeuteln. Bei Weizen und Tritikale werden Einzelisolatoren benutzt. Bei Roggen schließt man je Ähre 5 bis 7 verschiedene nebeneinander befindliche Pflanzen unter einen gemeinsamen Isolator ein. Bei Hierse wird jede Rispe getrennt isoliert. Der Sterilitätsprozentsatz (X) für Weizen, Roggen, Tritikale und Hirse wird nach der Formel [formula] ermittelt.
(§4) Die Kornzahl in nicht isolierten Ähren von Kontrollpflanzen wird bedingt für 100 % Ansetzen bei freier Bestäubung angenommen.
(§5) Um zuverlässige Angaben zu erhalten, verwendet man 20 bis 25 Isolatoren jeder Wiederholung für Weizen und Tritikale, 10 .bis 15 Isolatoren jeder Wiederholung für Roggen und Hirse.
Pflanzen des Sommerweizens Sorte Moskowskaja 35 werden in der V. Periode der Organogenese (nach Kupermann) mit 1%iger wäßriger Emulsion von δ, δ' -Thiodivaleriansäure, Natriumsalz der δ, δ' -Thiodivaleriansäure, δ, δ'--Sulfonyldivaleriansäure, Natriumsalz der d, δ' -Sulfonyldivaleriansäure, Kaliumsalz der δ, δ' -Sulfornyldivaleriansäure, Bis (die-n-butyläther) der δ, δ' -Thiodivaleriansäure, 4-Karboxybutyldezylsulfid, Bis(2-äthylhexyläther) der δ, δ' -Thiodivaleriansäure behandelt. Die Emulsion enthält 0,1 Masse% Kalziumalkylbenzolsulfonat mit 12 bis 14 Kohlenstoffatomen und 0,01 Masse% Dimethylsulfoxid. Der Verbrauch an Präparat beträgt 6 kg/ha. Als Kontrolle dienen Pflanzen, behandelt mit einem Verdünner ohne Sterilisationsmittel. Die Prüfergebnisse sind in der Tabelle 4 angegeben. […] Periode der Organogenese erhalten.
(§6) Pflanzen des Sommerweizens Sorte Rodina werden in der V. Periode der Organogenese (nach Kupermann) mit l%iger wäßriger Emulsion von δ, δ' -Sulfornyldivaleriansäure, 4-Karboxybutyldezylsulfid, Bis(2-äthylhexyläther) der δ, δ' -Thiodivaleriansäure behandelt. Die Emulsion enthält 0,1 Masse% Kalziumalkylbenzolsulfonat mit 12 bis 14 Kohlenstoffatomen und 0,01 Masse% Tetrahydrofuran. Der Verbrauch an Präparat beträgt 6 kg/ha. Als Kontrolle dienen Pflanzen, behandelt mit einem Verdünner ohne Sterilisationsmittel. Die Prüfergebnisse sind in der Tabelle 5 angegeben. […] Periode der Organogenese erhalten.
Pflanzen des Sommerwizens Sorte Charkowskaja 9 werden in der V. Periode der Organogenese (nach Kupermann.) mit 1%iger waßriger Emulsion von Bis(di-n-butyläther) der δ, δ' -Thiodivaleriansäure, Bis(2-äthylhexyläther) der δ, δ' -Thiodivaleriansäure behandelt. Die Emulsion enthält 0,1 Masse% Kalziumalkylbenzolsulfonat mit 12 bis 14 Kohlenstoffatomen und 0,01 Masse% Äthylenglykol. Der Verbrauch an Präparat beträgt 8 kg/ha. Als Kontrolle dienen Pflanzen, behandelt mit einem Verdünner ohne Sterilisationsmittel. Die Prüfergebnisse sind in der Tabelle 6 angegeben. […] Periode der Organogenese erhalten.
as §6, with “Botanitscheskaja 4” for “Rodina”, “1%iger” for “l%iger”, “von Natriumsatz der” for “von”, “--Thiodivaleriansäure, Bis(di-n-butyläther) der δ, δ' -Thiodiväleriansäure,” for “-Sulfornyldivaleriansäure,”, “Dodezylsulfat.” for “Tetrahydrofuran.”, “7” for “5”

**Q.** What does the source list for `O=C([O-])CCCCSCCCCC(=O)[O-].[Na+].[Na+]` [Beispiel 28, Natriumsatz der δ, δ' --Thiodivaleriansäure]?
**A.** Anzahl von Körnern der Ähre bei freier Bestäubung: 36,2; Anzahl von Körnern der Ähre im Isolator: 0,3; Prozentsatz der Sterilität: 99,2%; Prozentsatz des Ansetzens von Körnern bei freier Bestäubung: 90,0%

**Q.** Which results are given for `CCCCCCCCCCSCCCCC(=O)O` [Beispiel 30, 4-Karboxybutyldezylsulfid]?
**A.** Anzahl von Körnern der Ähre bei freier Bestäubung: 32,8; Anzahl von Körnern der Ähre im Isolator: 0,0; Prozentsatz der Sterilität: 100,0%; Prozentsatz des Ansetzens von Körnern bei freier Bestäubung: 81,6%

**Q.** For `CCCCC(CC)COC(=O)CCCCSCCCCC(=O)OCC(CC)CCCC` (stereo not shown) [Beispiel 31, Bis(2-äthylhexyläther) der δ, δ' -Thiodivaleriansäure], which “Anzahl von Körnern der Ähre bei freier Bestäubung” value is on record?
**A.** 33,4

**Q.** And the “Anzahl von Körnern der Ähre im Isolator” value?
**A.** 0,0

**Q.** And the “Prozentsatz der Sterilität” value?
**A.** 100,0%

**Q.** What about the “Prozentsatz des Ansetzens von Körnern bei freier Bestäubung” value of the same compound?
**A.** 83,1%

**Q.** What does the source list for “Bis(di-n-butyläther) der δ, δ' -Thiodiväleriansäure [Beispiel 29]”?
**A.** Anzahl von Körnern der Ähre bei freier Bestäubung: 30,6; Anzahl von Körnern der Ähre im Isolator: 0,0; Prozentsatz der Sterilität: 100,0%; Prozentsatz des Ansetzens von Körnern bei freier Bestäubung: 76,2%

Same assay, conditions: Sorte Charkowskaja 9; V. Periode der Organogenese; 1%ige Emulsion; 8 kg/ha

**Q.** `CCCCC(CC)COC(=O)CCCCSCCCCC(=O)OCC(CC)CCCC` (stereo not shown) [Beispiel 27, Bis(2-äthylhexyläther) der δ, δ' -Thiodivaleriansäure] was tested. Which “Anzahl von Körnern der Ähre bei freier Bestäubung” value did it give?
**A.** 28,6

**Q.** What about the “Anzahl von Körnern der Ähre im Isolator” value of the same compound?
**A.** 0,0

**Q.** And the “Prozentsatz der Sterilität” value?
**A.** 100,0%

**Q.** What about the “Prozentsatz des Ansetzens von Körnern bei freier Bestäubung” value of the same compound?
**A.** 88,9%

**Q.** Which results are given for “Bis(di-n-butyläther) der δ, δ' -Thiodivaleriansäure [Beispiel 26]”?
**A.** Anzahl von Körnern der Ähre bei freier Bestäubung: 28,7; Anzahl von Körnern der Ähre im Isolator: 0,0; Prozentsatz der Sterilität: 100,0%; Prozentsatz des Ansetzens von Körnern bei freier Bestäubung: 89,1%

Same assay, conditions: Sorte Moskowskaja 35; V. Periode der Organogenese; 1%ige wäßrige Emulsion; 6 kg/ha

**Q.** How did the “Anzahl von Körnern der Ähre bei freier Bestäubung” value turn out when `O=C(O)CCCCSCCCCC(=O)O` [Beispiel 15, δ, δ' -Thiodivaleriansäure] was run?
**A.** 31,7

**Q.** And the “Anzahl von Körnern der Ähre im Isolator” value?
**A.** 0,9

**Q.** What about the “Prozentsatz der Sterilität” value of the same compound?
**A.** 97,0%

**Q.** What about the “Prozentsatz des Ansetzens von Körnern bei freier Bestäubung” value of the same compound?
**A.** 98,3%

**Q.** With `O=C([O-])CCCCSCCCCC(=O)[O-].[Na+].[Na+]` [Beispiel 16, Natriumsalz der δ, δ' -Thiodivaleriansäure] as the compound, how does the “Anzahl von Körnern der Ähre bei freier Bestäubung” value read?
**A.** 30,8

**Q.** What about the “Anzahl von Körnern der Ähre im Isolator” value of the same compound?
**A.** 0,9

**Q.** What about the “Prozentsatz der Sterilität” value of the same compound?
**A.** 97,0%

**Q.** What about the “Prozentsatz des Ansetzens von Körnern bei freier Bestäubung” value of the same compound?
**A.** 96,5%

**Q.** Which “Anzahl von Körnern der Ähre bei freier Bestäubung” value does the source give for `O=C(O)CCCCS(=O)(=O)CCCCC(=O)O` [Beispiel 17, δ, δ'--Sulfonyldivaleriansäure] here?
**A.** 26,7

**Q.** What about the “Anzahl von Körnern der Ähre im Isolator” value of the same compound?
**A.** 0,0

**Q.** What about the “Prozentsatz der Sterilität” value of the same compound?
**A.** 100,0%

**Q.** What about the “Prozentsatz des Ansetzens von Körnern bei freier Bestäubung” value of the same compound?
**A.** 83,6%

**Q.** Which “Anzahl von Körnern der Ähre bei freier Bestäubung” value does the source give for `O=C([O-])CCCCS(=O)(=O)CCCCC(=O)[O-].[Na+].[Na+]` [Beispiel 18, Natriumsalz der d, δ' -Sulfonyldivaleriansäure] here?
**A.** 31,1

**Q.** And the “Anzahl von Körnern der Ähre im Isolator” value?
**A.** 0,3

**Q.** What about the “Prozentsatz der Sterilität” value of the same compound?
**A.** 99,0%

**Q.** And the “Prozentsatz des Ansetzens von Körnern bei freier Bestäubung” value?
**A.** 97,4%

**Q.** Which results are given for `O=C([O-])CCCCS(=O)(=O)CCCCC(=O)[O-].[K+].[K+]` [Beispiel 19, Kaliumsalz der δ, δ' -Sulfornyldivaleriansäure]?
**A.** Anzahl von Körnern der Ähre bei freier Bestäubung: 30,5; Anzahl von Körnern der Ähre im Isolator: 0,3; Prozentsatz der Sterilität: 99,0%; Prozentsatz des Ansetzens von Körnern bei freier Bestäubung: 95,6%

**Q.** Which “Anzahl von Körnern der Ähre bei freier Bestäubung” value does the source give for `CCCCCCCCCCSCCCCC(=O)O` [Beispiel 21, 4-Karboxybutyldezylsulfid] here?
**A.** 26,9

**Q.** What about the “Anzahl von Körnern der Ähre im Isolator” value of the same compound?
**A.** 0,0

**Q.** And the “Prozentsatz der Sterilität” value?
**A.** 100,0%

**Q.** And the “Prozentsatz des Ansetzens von Körnern bei freier Bestäubung” value?
**A.** 84,3%

**Q.** What does the source list for `CCCCC(CC)COC(=O)CCCCSCCCCC(=O)OCC(CC)CCCC` (stereo not shown) [Beispiel 22, Bis(2-äthylhexyläther) der δ, δ' -Thiodivaleriansäure]?
**A.** Anzahl von Körnern der Ähre bei freier Bestäubung: 25,7; Anzahl von Körnern der Ähre im Isolator: 0,0; Prozentsatz der Sterilität: 100,0%; Prozentsatz des Ansetzens von Körnern bei freier Bestäubung: 80,6%

**Q.** Which results are given for “Bis (die-n-butyläther) der δ, δ' -Thiodivaleriansäure [Beispiel 20]”?
**A.** Anzahl von Körnern der Ähre bei freier Bestäubung: 28,7; Anzahl von Körnern der Ähre im Isolator: 0,0; Prozentsatz der Sterilität: 100,0%; Prozentsatz des Ansetzens von Körnern bei freier Bestäubung: 89,9%

Same assay, conditions: Sorte Rodina; V. Periode der Organogenese; 1%ige wäßrige Emulsion; 6 kg/ha

**Q.** How did the “Anzahl von Körnern der Ähre bei freier Bestäubung” value turn out when `O=C(O)CCCCS(=O)(=O)CCCCC(=O)O` [Beispiel 23, δ, δ' -Sulfornyldivaleriansäure] was run?
**A.** 36,1

**Q.** And the “Anzahl von Körnern der Ähre im Isolator” value?
**A.** 0,0

**Q.** And the “Prozentsatz der Sterilität” value?
**A.** 100,0%

**Q.** What about the “Prozentsatz des Ansetzens von Körnern bei freier Bestaubung” value of the same compound?
**A.** 96,3%

**Q.** What does the source list for `CCCCCCCCCCSCCCCC(=O)O` [Beispiel 24, 4-Karboxybutyldezylsulfid]?
**A.** Anzahl von Körnern der Ähre bei freier Bestäubung: 29,8; Anzahl von Körnern der Ähre im Isolator: 0,0; Prozentsatz der Sterilität: 100,0%; Prozentsatz des Ansetzens von Körnern bei freier Bestaubung: 79,5%

**Q.** Which results are given for `CCCCC(CC)COC(=O)CCCCSCCCCC(=O)OCC(CC)CCCC` (stereo not shown) [Beispiel 25, Bis(2-äthylhexyläther) der δ, δ' -Thiodivaleriansäure]?
**A.** Anzahl von Körnern der Ähre bei freier Bestäubung: 31,2; Anzahl von Körnern der Ähre im Isolator: 0,0; Prozentsatz der Sterilität: 100,0%; Prozentsatz des Ansetzens von Körnern bei freier Bestaubung: 83,2%

Test system: Winterweizen
Test: Field test of gametocidal activity (sterilisation of anthers), winter wheat
Format: in vivo
Details: Sorte Mironowskaja 808; V. Periode der Organogenese; 2%ige wäßrige Emulsion; 20 kg/ha
Text: as §1, §2, §3, §4, §5
Pflanzen des Winterweizens Sorte Mironowskaja 808 werden in der V. Periode der Organogenese durch Zerstäubung der 2%igen wäßrigen Emulsion der δ, δ' -Thiodivaleriansäure mit Hilfe einer Rückenspritze behandelt. Als Emulgiermittel wird 0,1 Masse% Kalziumalkylbenzalsulfonat mit 12 bis 14 Kohlenstoffatomen hinzugefügt. Als Adjuvans führt man in die Emulsion 0,01 Masse% Dimethylsulfoxid ein. Der Verbrauch an Präparat beträgt 20 kg/ha. Als Kontrolle dienen Pflanzen, behandelt mit einem Verdünner ohne Sterilisationsmittel. Die Ergebnisse sind in der Tabelle 1 angegeben. […] Periode der Organogenese erhalten.
Der Prozeß erfolgt analog zu dem im Beispiel 1 bescnriebenen. Als Sterilisationsmittel benutzt man 2%ige wäßrige Emulsion von Natriumsalz der δ, δ'-Thiodivaleriansäure, δ, δ' -Sulfonyldivaleriansäure, Natriumsalz der δ, δ' -Sulfonyldivaleriansäure, Kaliumsalz der δ, δ'--Sulfonyldivaleriansäure, Bis(di-n-butyläther) der δ, δ'--Thiodivaleriansäure, 4-Karboxybutyldezylsulfid bzw.
Pflanzen des Winterweizens Sorte Korall werden in der V. Periode der Organogenese (nach Kupermann) mit 2%iger wäßriger Emulsion von Bis(2-äthylhexyläther) der δ, δ' --Thiodivaleriansäure, 4-Karboxybutyldezylsulfid bzw. Bis(di--n-butyläther) der δ, δ' -Thiodivalerianqäure behandelt. Die Emulsion enthält 0,1 Masse% Kalziumalkylbenzolsulfonat mit 12 bis 14 Kohlenstoffatomen und 0,01 Masse% Dodezylsulfat. Der Verbrauch an Präparat beträgt 12 kg/ha. Als Kontrolle dienen Pflanzen, behandelt mit einem Verdünner ohne Sterilisationsmittel. Die Prüfergebnisse sind in der Tabelle 2 angegeben.
Pflanzen des Winterweizens Gordeiforme 12303 werden in der V. Periode der Organogenese (nach Kupermann) mit 2%iger wäßriger Emulsion von 4-Karboxybutyldezylsulfid, Bis(2-äthylhexyläther) der δ, δ' -Thiodivaleriansäure, δ, δ' -Sulfonyldivaleriansäure behandelt. Die Emulsion enthält als Emulgiermittel 0,1 Masse% Kalziumalkylbenzolsulfonat mit 12 bis 14 Kohlenstoffatomen und 0,01 Masse% Dimethylformamid. Der Verbrauch an Präparat beträgt 16 kg/ha. Als Kontrolle dienen Pflanzen, behandelt mit einem Verdünner ohne Sterilisationsmittel.

**Q.** What does the source list for `O=C([O-])CCCCSCCCCC(=O)[O-].[Na+].[Na+]` [Beispiel 2, Natriumsalz der δ, δ'-Thiodivaleriansäure]?
**A.** Anzahl von Körnern der Ähre bei freier Bestäubung: 35,3; Anzahl von Körnern der Ähre im Isolator: 0,3; Prozentsatz der Sterilität: 99,3%; Prozentsatz des Ansetzens von Körnern bei freier Bestäubung: 85,7%

**Q.** For `O=C(O)CCCCS(=O)(=O)CCCCC(=O)O` [Beispiel 3, δ, δ' -Sulfonyldivaleriansäure], which “Anzahl von Körnern der Ähre bei freier Bestäubung” value is on record?
**A.** 37,2

**Q.** And the “Anzahl von Körnern der Ähre im Isolator” value?
**A.** 0,0

**Q.** And the “Prozentsatz der Sterilität” value?
**A.** 100,0%

**Q.** What about the “Prozentsatz des Ansetzens von Körnern bei freier Bestäubung” value of the same compound?
**A.** 90,3%
